The values below come from patent EP4703354A1, “COMPOUND AS CCR6 ANTAGONIST, AND PHARMACEUTICAL COMPOSITION AND USE THEREOF” (Wuhan Createrna Science and Technology Co.,Ltd., priority 2023, dated 2024).

A short description of series [1]: in vitro liver microsome metabolic stability, rat. The class given is in vitro ADME. The conditions noted are these: Rat liver microsomes, 37°C. The gist of the method:
(§1)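 Test compound at 1 µM final (100 µM working solution diluted 1:100) incubated at 37°C with liver microsomes in pH 7.4 phosphate buffer with NADP/G6P/G6PDH/MgCl2 regenerating system; sampled 0–30 min, LC-MS/MS vs internal standard. T1/2 = 0.693/k from remaining-fraction decay.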
For orientation: Liver microsomes are vesicles of endoplasmic reticulum, rich in cytochrome P450 enzymes.

In a further series the target is T1, human CCR6 (Homo sapiens, UniProt P51684).
T1 construct: expressed in transfected cells; host or cells: HEK293
T1 sequence (P51684 1-374): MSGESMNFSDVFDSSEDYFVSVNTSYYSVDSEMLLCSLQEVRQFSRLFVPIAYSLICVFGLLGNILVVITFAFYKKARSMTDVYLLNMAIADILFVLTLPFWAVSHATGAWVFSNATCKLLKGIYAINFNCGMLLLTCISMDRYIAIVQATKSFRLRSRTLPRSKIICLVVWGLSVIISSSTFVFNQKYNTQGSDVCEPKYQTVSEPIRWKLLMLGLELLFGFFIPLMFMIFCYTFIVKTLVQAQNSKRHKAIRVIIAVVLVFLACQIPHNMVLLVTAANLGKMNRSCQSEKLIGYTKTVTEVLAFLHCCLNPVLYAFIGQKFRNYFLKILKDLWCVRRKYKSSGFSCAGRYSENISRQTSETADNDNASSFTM
Kind of series: human CCR6 calcium flux activity (FLIPR, HEK293 cells stably expressing human CCR6, CCL20 stimulation). The class given is cell-based. The note with it: for IC50: HEK293 cells stably expressing human CCR6, EC80 human MIP-3 alpha/CCL20, read-out: CCR6 inhibitory activity, IC50; for CCR6 selectivity: ratio of CXCR2 IC50 to CCR6 IC50. The gist of the method: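 Read-out is the RFUMax−RFUMin calcium signal (494/516 nm, 90 s) after EC80 CCL20 addition, fitted four-parameter for IC50. Before agonist, Fluo-4 Direct-loaded cells sat with compound 50 min at 37 °C plus 10 min at room temperature.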
Background: Calcium flux is commonly read through the fluorescence of an indicator in the cells.

Series [2] in a line: in vitro liver microsome metabolic stability, beagle dog. The note with it: Beagle dog liver microsomes, 37°C. The class given is in vitro ADME. In short, it runs like this: as §1
The nature of series [3]: in vitro liver microsome metabolic stability, human. The format is in vitro ADME. The conditions noted are these: Human liver microsomes, 37°C. The gist of the method:
as §1

As to `CN(C)C(=O)c1nccc(Nc2c(N[C@@H](C#CC3CC3)C3(C)CCCC3)c(=O)c2=O)c1O` [compound 115, (R)-4-((2-((3-cyclopropyl-1-(1-methylcyclopentyl)prop-2-yn-1-yl)amino)-3,4-dioxocyclobut-1-en-1-yl)amino)-3-hydroxy-N,N-dimethylpicolinamide], the “Liver microsome T1-2 (min) Rat” value in series [1] was found to be 114.18 min. Moreover, at human CCR6, the concentration for half-maximal inhibition (IC50) (in general, the concentration that gives 50% inhibition) was determined as 47.6 nM and the CCR6 selectivity amounted to 11.1. In addition, in series [2], the “Liver microsome T1-2 (min) Beagle dog” value is on record as 1110.44 min. Besides, the “Liver microsome T1-2 (min) Human” value in series [3] is given as 247.27 min.
As for `CN(C)C(=O)c1nccc(Nc2c(N[C@@H](c3ncc(F)cc3F)C3(C)CCCC3)c(=O)c2=O)c1O` [compound 009, (R)-4-((2-(((3,5-difluoropyridin-2-yl)(1-methylcyclopentyl)methyl)amino)-3,4-dioxocyclobut-1-en-1-yl)amino)-3-hydroxy-N,N-dimethylpicolinamide], the “Liver microsome T1-2 (min) Rat” value in series [1] worked out at 62.30 min. At human CCR6, the concentration for half-maximal inhibition (IC50) is 8 nM and the CCR6 selectivity came to 303.4. Further, the “Liver microsome T1-2 (min) Beagle dog” value in series [2] amounted to 89.42 min. In addition, in series [3], the “Liver microsome T1-2 (min) Human” value turned out to be 225.37 min.
As to `CN(C)C(=O)c1nccc(Nc2c(N[C@@H](c3cccc(Cl)n3)C3(C)CCCC3)c(=O)c2=O)c1O` [compound 003, (R)-4-((2-(((6-chloropyridin-2-yl)(1-methylcyclopentyl)methyl)amino)-3,4-dioxocyclobut-1-en-1-yl)amino)-3-hydroxy-N,N-dimethylpicolinamide], the “Liver microsome T1-2 (min) Rat” value in series [1] turned out to be 93.67 min. In addition, on human CCR6, the half-inhibitory concentration (IC50) came to 22.1 nM and the CCR6 selectivity is 100.0. For the same molecule, the “Liver microsome T1-2 (min) Human” value in series [3] was found to be 511.95 min.
Regarding `CN(C)C(=O)c1nccc(Nc2c(N[C@@H](c3cccc(CF)n3)C3(C)CCCC3)c(=O)c2=O)c1O` [compound 108, (R)-4-((2-(((6-(fluoromethyl)pyridin-2-yl)(1-methylcyclopentyl)methyl)amino)-3,4-dioxocyclobut-1-en-1-yl)amino)-3-hydroxy-N,N-dimethylpicolinamide], the “Liver microsome T1-2 (min) Rat” value in series [1] was determined as 124.28 min. Moreover, at human CCR6, the half-maximal inhibitory concentration (IC50) came to 3.9 nM and the CCR6 selectivity came out at 189.6. The “Liver microsome T1-2 (min) Beagle dog” value in series [2] came out at 63.57 min. In addition, the “Liver microsome T1-2 (min) Human” value in series [3] worked out at 458.54 min.
Turning to `CC#C[C@H](Nc1c(Nc2ccc(Cl)c(C(=O)N(C)C)c2O)c(=O)c1=O)C1(C)CCCC1` [compound 114, (R)-6-chloro-2-hydroxy-N, N-dimethyl-3-((2-((1-(1-methylcyclopentyl)but-2-yn-1-yl)amino)-3,4-dioxocyclobut-1-en-1-yl)amino)benzamide], in series [1], the “Liver microsome T1-2 (min) Rat” value came out at 120.25 min. In addition, at human CCR6, the 50% inhibitory concentration (IC50) stood at 55.3 nM and the CCR6 selectivity amounted to 26.2. The “Liver microsome T1-2 (min) Beagle dog” value in series [2] is recorded as 489.6 min. Also, the “Liver microsome T1-2 (min) Human” value in series [3] worked out at 392.83 min.
Take `CN(C)C(=O)c1nccc(Nc2c(N[C@@H](c3ccc(F)cn3)C3(C)CCCC3)c(=O)c2=O)c1O` [compound 005, (R)-4-((2-(((5-fluoropyridin-2-yl)(1-methylcyclopentyl)methyl)amino)-3,4-dioxocyclobut-1-en-1-yl)amino)-3-hydroxy-N,N-dimethylpicolinamide]: in series [1], the “Liver microsome T1-2 (min) Rat” value was 101.29 min. For the same molecule, on human CCR6, the IC50 worked out at 10.9 nM and the CCR6 selectivity came to 115.0. Moreover, the “Liver microsome T1-2 (min) Beagle dog” value in series [2] was found to be 254.48 min. Further, the “Liver microsome T1-2 (min) Human” value in series [3] was found to be 431.17 min.
Taken in the same sequence, the figures for `CN(C)C(=O)c1nccc(Nc2c(N[C@@H](c3nc(Cl)ccc3F)[C@@]3(C)CC(F)(F)CO3)c(=O)c2=O)c1O` [068B, 4-((2-(((S)-(6-chloro-3-fluoropyridin-2-yl)((R)-4,4-difluoro-2-methyltetrahydrofuran-2-yl)methyl)amino)-3,4-dioxocyclobut-1-en-1-yl)amino)-3-hydroxy-N,N-dimethylpicolinamide] were 570.62 min, 5.3 nM, 1440.2, 199.34 min and 995.19 min.
`CC#C[C@H](Nc1c(Nc2ccnc(C(=O)N(C)C)c2O)c(=O)c1=O)C1(C)CCCC1` [compound 113, (R)-3-hydroxy-N, N-dimethyl-4-((2-((1-(1-methylcyclopentyl)but-2-yn-1-yl)amino)-3,4-dioxocyclobut-1-en-1-yl)amino)picolinamide]: the “Liver microsome T1-2 (min) Rat” value in series [1] is recorded as 124.51 min. Also, on human CCR6, the concentration for half-maximal inhibition (IC50) stood at 49.8 nM and the CCR6 selectivity is 29.7. The “Liver microsome T1-2 (min) Beagle dog” value in series [2] turned out to be 520.59 min. Further, the “Liver microsome T1-2 (min) Human” value in series [3] was 577.09 min.
As for `CN(C)C(=O)c1nccc(Nc2c(N[C@@H](C#CC3CCC3)[C@]3(C)CC(F)(F)CO3)c(=O)c2=O)c1O` (single isomer, unassigned) [110A], in series [1], the “Liver microsome T1-2 (min) Rat” value amounted to 292.82 min. In addition, on human CCR6, the IC50 was 9.3 nM and the CCR6 selectivity is recorded as 32.0. Further, the “Liver microsome T1-2 (min) Beagle dog” value in series [2] was determined as 358.15 min. For the same molecule, the “Liver microsome T1-2 (min) Human” value in series [3] worked out at 641.85 min.
On to `Cc1cccnc1[C@H](Nc1c(Nc2ccc(Cl)c(C(=O)N(C)C)c2O)c(=O)c1=O)C1(C)CCCC1` [compound 063, (R)-6-chloro-2-hydroxy-N,N-dimethyl-3-((2-(((1-methylcyclopentyl)(3-methylpyridin-2-yl)methyl)amino)-3,4-dioxocyclobut-1-en-1-yl)amino)benzamide], for which the “Liver microsome T1-2 (min) Rat” value in series [1] is 20.71 min. At human CCR6, the IC50 worked out at 11.7 nM and the CCR6 selectivity was determined as 1310.8. For the same molecule, the “Liver microsome T1-2 (min) Beagle dog” value in series [2] is reported as 202.25 min. Further, the “Liver microsome T1-2 (min) Human” value in series [3] came out at 296.47 min.
Regarding `Cc1cc(F)cnc1[C@H](Nc1c(Nc2ccnc(C(=O)N(C)C)c2O)c(=O)c1=O)[C@]1(C)CC(F)(F)CO1` [093A, 4-((2-(((S)-((S)-4,4-difluoro-2-methyltetrahydrofuran-2-yl)(5-fluoro-3-methylpyridin-2-yl)methyl)amino)-3,4-dioxocyclobut-1-en-1-yl)amino)-3-hydroxy-N,N-dimethylpicolinamide], the “Liver microsome T1-2 (min) Rat” value in series [1] turned out to be 110.15 min. Moreover, at human CCR6, the IC50 amounted to 17.1 nM and the CCR6 selectivity was over 5848.0. Also, in series [2], the “Liver microsome T1-2 (min) Beagle dog” value is listed as 104.27 min. The “Liver microsome T1-2 (min) Human” value in series [3] came out at 359.51 min.
